PubChem BioAssay (NCI)
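Growth conditions: 96-well plates. Treatment: test compound, 48 hours, 5 concentrations. Analysis: linear interpolation between bracketing concentrations; unreached endpoints set to highest concentration. Here, GI50 denotes the concentration required for 50% inhibition of growth. TGI denotes the concentration required for complete inhibition of growth.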

Key:
Assay in all cases: growth of human tumour cells (NCI), 48 h
DU-145 prostate = tested on: DU-145 prostate
A498 renal = tested on: A498 renal
OVCAR-3 ovarian = tested on: OVCAR-3 ovarian
SF-268 CNS = tested on: SF-268 CNS
NCI-H522 lung = tested on: NCI-H522 lung
OVCAR-5 ovarian = tested on: OVCAR-5 ovarian
HCC-2998 colon = tested on: HCC-2998 colon
SF-539 CNS = tested on: SF-539 CNS
NCI/ADR-RES ovarian = tested on: NCI/ADR-RES ovarian
U251 CNS = tested on: U251 CNS
MDA-MB-231 breast = tested on: MDA-MB-231 breast
CAKI-1 renal = tested on: CAKI-1 renal
SNB-19 CNS = tested on: SNB-19 CNS
HT29 colon = tested on: HT29 colon
NCI-H23 lung = tested on: NCI-H23 lung
SK-MEL-2 melanoma = tested on: SK-MEL-2 melanoma
TK-10 renal = tested on: TK-10 renal
786-0 renal = tested on: 786-0 renal
MALME-3M melanoma = tested on: MALME-3M melanoma
MDA-MB-435 = tested on: MDA-MB-435
SF-295 CNS = tested on: SF-295 CNS
NCI-H460 lung = tested on: NCI-H460 lung
T-47D breast = tested on: T-47D breast
M14 melanoma = tested on: M14 melanoma
K-562 leukemia = tested on: K-562 leukemia
HS 578T breast = tested on: HS 578T breast
PC-3 prostate = tested on: PC-3 prostate
OVCAR-4 ovarian = tested on: OVCAR-4 ovarian
KM12 colon = tested on: KM12 colon
BT-549 breast = tested on: BT-549 breast
OVCAR-8 ovarian = tested on: OVCAR-8 ovarian
UO-31 renal = tested on: UO-31 renal
SK-MEL-28 melanoma = tested on: SK-MEL-28 melanoma
SK-MEL-5 melanoma = tested on: SK-MEL-5 melanoma
RPMI-8226 leukemia = tested on: RPMI-8226 leukemia
SW-620 colon = tested on: SW-620 colon
HOP-62 NSCLC = tested on: HOP-62 NSCLC
HCT-15 colon = tested on: HCT-15 colon
RXF 393 renal = tested on: RXF 393 renal
A549 NSCLC = tested on: A549 NSCLC
COLO 205 colon = tested on: COLO 205 colon
MCF7 breast = tested on: MCF7 breast
SK-OV-3 ovarian = tested on: SK-OV-3 ovarian
SNB-75 CNS = tested on: SNB-75 CNS
SR leukemia = tested on: SR leukemia
HCT-116 colon = tested on: HCT-116 colon
HL-60(TB) leukemia = tested on: HL-60(TB) leukemia
NCI-H226 lung = tested on: NCI-H226 lung
MOLT-4 leukemia = tested on: MOLT-4 leukemia
HOP-92 NSCLC = tested on: HOP-92 NSCLC
IGROV1 ovarian = tested on: IGROV1 ovarian
UACC-62 melanoma = tested on: UACC-62 melanoma
UACC-257 melanoma = tested on: UACC-257 melanoma
LOX IMVI melanoma = tested on: LOX IMVI melanoma
SN12C renal = tested on: SN12C renal
ACHN renal = tested on: ACHN renal
CCRF-CEM leukemia = tested on: CCRF-CEM leukemia

## CC1(C)N=C(N)N=C(N)N1c1ccc(CCCCc2ccc(S(=O)(=O)F)cc2)c(Cl)c1
DU-145 prostate
  GI50: 0.484 µM
  TGI: 17.5 µM
A498 renal
  GI50: 0.981 µM
  TGI: 18 µM
OVCAR-3 ovarian
  GI50: 0.851 µM
  TGI: 17.4 µM
SF-268 CNS
  GI50: 0.225 µM
  TGI: 19.5 µM
NCI-H522 lung
  GI50: 0.419 µM
  TGI: 16.7 µM
OVCAR-5 ovarian
  GI50: 0.124 µM
  TGI: 83.8 µM
HCC-2998 colon
  GI50: 0.884 µM
  TGI: 20.9 µM
SF-539 CNS
  GI50: 0.391 µM
  TGI: 13.9 µM
NCI/ADR-RES ovarian
  GI50: 45 µM
  TGI: > 100 µM
U251 CNS
  GI50: 0.0936 µM
  TGI: 16.4 µM
MDA-MB-231 breast
  GI50: 1.76 µM
  TGI: 21.2 µM
CAKI-1 renal
  GI50: 0.79 µM
  TGI: > 100 µM
SNB-19 CNS
  GI50: 0.773 µM
  TGI: 19.1 µM
HT29 colon
  GI50: 0.0566 µM
  TGI: 15.3 µM
NCI-H23 lung
  GI50: 0.363 µM
  TGI: 19.5 µM
SK-MEL-2 melanoma
  GI50: 2.48 µM
  TGI: 20.7 µM
TK-10 renal
  GI50: 0.848 µM
  TGI: 20.3 µM
786-0 renal
  GI50: 0.224 µM
  TGI: 19.3 µM
MALME-3M melanoma
  GI50: 12 µM
  TGI: 35.9 µM
MDA-MB-435
  GI50: 0.0666 µM
  TGI: 16.6 µM
SF-295 CNS
  GI50: 0.636 µM
  TGI: 18.2 µM
NCI-H460 lung
  GI50: 0.0399 µM
  TGI: 12.6 µM
T-47D breast
  GI50: 2.05 µM
  TGI: 15.2 µM
M14 melanoma
  GI50: 0.334 µM
  TGI: 17.9 µM
K-562 leukemia
  GI50: 0.0628 µM
  TGI: 17.9 µM
HS 578T breast
  GI50: 9.27 µM
  TGI: 32.1 µM
PC-3 prostate
  GI50: 0.0493 µM
  TGI: 15.9 µM
OVCAR-4 ovarian
  GI50: 5.18 µM
  TGI: 22 µM
KM12 colon
  GI50: 0.454 µM
  TGI: 15.2 µM
BT-549 breast
  GI50: 9.61 µM
  TGI: 22.5 µM
OVCAR-8 ovarian
  GI50: 0.452 µM
  TGI: 18.4 µM
UO-31 renal
  GI50: 9.59 µM
  TGI: > 100 µM
SK-MEL-28 melanoma
  GI50: 0.85 µM
  TGI: 20.8 µM
SK-MEL-5 melanoma
  GI50: 0.345 µM
  TGI: 12.5 µM
RPMI-8226 leukemia
  GI50: 0.283 µM
  TGI: 13 µM
SW-620 colon
  GI50: 0.0527 µM
  TGI: 14.7 µM
HOP-62 NSCLC
  GI50: 1.45 µM
  TGI: 23.7 µM
HCT-15 colon
  GI50: 0.593 µM
  TGI: > 100 µM
RXF 393 renal
  GI50: 0.0862 µM
  TGI: > 61.2 µM
A549 NSCLC
  GI50: 0.334 µM
  TGI: > 44.8 µM
COLO 205 colon
  GI50: 0.34 µM
  TGI: 18.7 µM
MCF7 breast
  GI50: 0.198 µM
  TGI: 14.2 µM
SK-OV-3 ovarian
  GI50: 7.97 µM
  TGI: 25.5 µM
SNB-75 CNS
  GI50: 0.514 µM
  TGI: 18.9 µM
SR leukemia
  GI50: 0.051 µM
  TGI: 23.2 µM
HCT-116 colon
  GI50: 0.0483 µM
  TGI: 18.9 µM
HL-60(TB) leukemia
  GI50: 0.181 µM
  TGI: 23.6 µM
NCI-H226 lung
  GI50: 0.626 µM
  TGI: 25.9 µM
MOLT-4 leukemia
  GI50: 0.518 µM
  TGI: 21.4 µM
HOP-92 NSCLC
  GI50: 5.56 µM
  TGI: 26.1 µM
IGROV1 ovarian
  GI50: 0.0592 µM
  TGI: 21.5 µM
UACC-62 melanoma
  GI50: 0.0559 µM
  TGI: 19.6 µM
UACC-257 melanoma
  GI50: 0.929 µM
  TGI: 19.1 µM
LOX IMVI melanoma
  GI50: 0.0723 µM
  TGI: 15.3 µM
SN12C renal
  GI50: 0.189 µM
  TGI: 16.2 µM
ACHN renal
  GI50: 0.789 µM
  TGI: > 100 µM
CCRF-CEM leukemia
  GI50: 0.107 µM
  TGI: 17.4 µM
